# Results reported in article PMC3384541 (Cancer discovery, 2012).
# Columns and labels:
# panel of 433 kinases = experiment: KinomeScan kinase selectivity profile; assay type: binding; conditions: 10 µM
# [1] = system: panel of 422 cancer cell lines; experiment: High-throughput cell viability assay; assay type: cell-based, human; conditions: threshold EC50 < 5 µM, 72 h treatment
# [2] = system: HCC70, MDA-MB-468, BT549 and PC3 cell lines; experiment: Western blot of AKT phosphorylation in PTEN-null cancer cell lines; assay type: cell-based, human
# HMEC-CA-p110β = experiment: BacMam-enabled LanthaScreen cellular assay; assay type: cell-based; conditions: Homo sapiens, read-out: IC50 in cell culture
# In vivo pharmacokinetics = experiment: In vivo pharmacokinetics; design: species or system mice
# Rat1-CA-p110β tumors [3] = experiment: In vivo pharmacodynamics, pAKT in tumor lysates; design: species or system mice; conditions: 1 hour after single IP injection 10 mg/kg
# Rat1-CA-p110α tumors [4] = experiment: In vivo pharmacodynamics, pAKT in tumor lysates; design: species or system mice; conditions: after single IP injection 10 mg/kg
# Rat1-CA-p110β tumors [5] = experiment: Xenograft tumor growth; assay type: in vivo, mice; conditions: IP 20 mg/kg once or twice daily
# Rat1-CA-p110α tumors [6] = experiment: Xenograft tumor growth; assay type: in vivo, mice; conditions: IP 20 mg/kg once or twice daily
# HCC70 tumors = experiment: Xenograft tumor growth; assay type: in vivo, mice; conditions: PTEN-deficient; IP, 20 mg/kg, BID
# PC3 tumors = experiment: Xenograft tumor growth; assay type: in vivo, mice; conditions: PTEN-deficient; IP, 20 mg/kg, BID
# HCC1954 tumors = experiment: Xenograft tumor growth; assay type: in vivo, mice; conditions: PTEN wild-type
# [7] = system: HMEC-CA-p110α, HMEC-CA-p110β, HMEC-CA-p110δ; assay type: cell-based, human; conditions: isogenic HMEC-CA-p110 lines, serum-free, western blot
# [8] = single IP injection 10 mg/kg, tumor-bearing mice
compound,measurement,setting,value
"Cc1cc([C@@H](C)Nc2ccccc2C(=O)O)c2nc(N3CCOCC3)cc(=O)n2c1 [KIN-193, (−)2-[1-(7-Me-2-(morpholin-4-yl)-4-oxo-4H-pyrido[1,2-a]pyrimidin-9-yl)ethylamino]benzoic acid]",inhibitor-kinase interaction profile,panel of 433 kinases,highly selective in its interaction with PI3Ks
same,cell lines with PTEN mutations sensitive to compound,[1]; 20 out of 57 lines,35%
same,cell lines with wild-type PTEN sensitive to compound,[1]; 58 out of 365 lines,16%
same,effect on AKT phosphorylation,[2],significantly inhibited AKT phosphorylation
same,IC50,HMEC-CA-p110β,100 to 500 nM
same,IC50,"In vivo pharmacokinetics; Mus musculus, read-out: IC50 / level reached in vivo",≤ 1000 nM
same,optimal route for robust in vivo exposure,In vivo pharmacokinetics; mice,intraperitoneal (IP) delivery to be the optimal route
same,concentrations in CA-p110α- and CA-p110β-driven tumors,In vivo pharmacokinetics; single IP injection 10 mg/kg,paralleled the plasma concentrations
same,time by which plasma concentration declined to undetectable levels,In vivo pharmacokinetics; [8],≤ 4 h
same,time of highest plasma concentration,In vivo pharmacokinetics; [8],1 h
same,phosphorylation of AKT in tumor lysates,Rat1-CA-p110β tumors [3],significantly reduced
same,phosphorylation of AKT in tumor lysates,Rat1-CA-p110α tumors [4],remained unchanged
same,tumor growth,Rat1-CA-p110β tumors [5],significantly impaired
same,tumor growth,Rat1-CA-p110α tumors [6],little effect
same,tumor growth,HCC70 tumors,significantly inhibited tumor growth
same,tumor growth,PC3 tumors,significantly inhibited tumor growth
same,tumor growth,"HCC1954 tumors; IP, 20 mg/kg, BID",failed to block the growth
Cc1cc(C(C)Nc2ccccc2)c2nc(N3CCOCC3)cc(=O)n2c1 (centres unmarked) [TGX-221],inhibition of phosphorylation of AKT at Thr308 and Ser473,[7],in a dose-dependent manner
Cc1ccccc1-n1c(Cn2cnc3c(N)ncnc32)nc2cccc(C)c2c1=O [IC87114],effect on AKT phosphorylation,[2],had much less effect
same,inhibition of phosphorylation of AKT at Thr308 and Ser473,[7],in a dose-dependent manner
"CS(=O)(=O)N1CCN(Cc2cc3nc(-c4cccc5[nH]ncc45)nc(N4CCOCC4)c3s2)CC1 [GDC-0941, reference compound]",tumor growth,"HCC1954 tumors; PO, 150 mg/kg, QD",responded to treatment
Cc1ccc([N+](=O)[O-])cc1S(=O)(=O)N(C)/N=C/c1cnc2ccc(Br)cn12 [PIK-75],effect on AKT phosphorylation,[2],had much less effect
same,inhibition of phosphorylation of AKT at Thr308 and Ser473,[7],in a dose-dependent manner
